Experiments:
P2X7 [1] = molecular target: T1, P2X7 (Homo sapiens, UniProt Q99572); experiment: IL-1β release assay in THP-1 cells (sandwich ELISA); type: cell-based; set-up: release of mature IL-1β in the culture medium of THP-1 cells; endogenous in cells; host or cells: THP-1 cells (PMA-differentiated, LPS-primed); conditions: PMA, LPS primed, stimulated with 0.8 mM BzATP, mature IL-1β release, read-out: hTHP-1/IL-ib IC50
T1 sequence (Q99572 1-595): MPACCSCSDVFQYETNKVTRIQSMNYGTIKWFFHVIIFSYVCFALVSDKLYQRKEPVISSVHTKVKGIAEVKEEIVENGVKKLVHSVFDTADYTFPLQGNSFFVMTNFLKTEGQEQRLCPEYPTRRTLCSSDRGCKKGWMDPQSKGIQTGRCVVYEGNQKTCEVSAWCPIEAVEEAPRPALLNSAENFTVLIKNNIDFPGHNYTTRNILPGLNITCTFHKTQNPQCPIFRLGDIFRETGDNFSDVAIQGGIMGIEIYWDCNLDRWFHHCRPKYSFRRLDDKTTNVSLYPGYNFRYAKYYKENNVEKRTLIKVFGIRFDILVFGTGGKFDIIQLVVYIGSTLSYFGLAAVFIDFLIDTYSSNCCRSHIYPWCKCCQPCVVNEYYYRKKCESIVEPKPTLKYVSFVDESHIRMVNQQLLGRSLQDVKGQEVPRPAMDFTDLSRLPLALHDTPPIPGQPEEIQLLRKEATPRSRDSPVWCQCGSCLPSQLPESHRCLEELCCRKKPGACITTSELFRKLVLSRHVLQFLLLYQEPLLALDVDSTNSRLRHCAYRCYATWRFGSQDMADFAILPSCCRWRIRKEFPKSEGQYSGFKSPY
Outline: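 THP-1 cells differentiated with 0.5 μM PMA and primed 4 h with 10 ng/ml LPS at 37° C, then preincubated 20 min with compound. Stimulated with 0.8 mM BzATP for 30 min; mature IL-1β released into the supernatant quantified by sandwich ELISA.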

P2X7 [2] = molecular target: T1, P2X7; experiment: Pore permeation assay (YO PRO dye uptake, BzATP-induced); type: cell-based; set-up: expressed in transfected cells; host or cells: HEK293; conditions: HEK293 transfected with human P2X7 receptor; YO PRO dye 1 uM, BzATP 10 uM; read-out: hP2X7 IC50
Outline: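 HEK293 cells overexpressing human P2X7, plated overnight at 37 C, preincubated 20 min at room temperature with compound (10-point series from 2.5 uM) in HEPES-buffered saline pH 7.4 with 0.1 mM CaCl2. Then 10 uM BzATP plus 1 uM YO PRO added; dye uptake read by fluorescence after 30 min at room temperature.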

Compound | IC50 (P2X7 [1]) | IC50 (P2X7 [2])
O=C(NCC1CCCC(F)(F)C1)c1c(Cl)ccc2nc(N3CCC(F)C3)ccc12 (centres unmarked) [Compound 39, 6-Chloro-2-(3-fluoropyrrolidin-1-yl)-quinoline-5-carboxylic acid (3,3-difluoro-cyclohexylmethyl)-amide] | 10 to 100 nM | 10 to 100 nM
O=C(NCC1CCC(F)(F)CC1)c1c(Cl)ccc2nc(N3CC[C@@H](CCO)C3)ccc12 [Compound 26, 6-Chloro-2-((S)-3-hydroxyethyl-pyrrolidin-1-yl)-quinoline-5-carboxylic acid (4,4-difluoro-cyclohexylmethyl)-amide] | 101 to 500 nM | 10 to 100 nM
C[C@@H]1CCC[C@](O)(CNC(=O)c2c(Cl)ccc3nc(N4CC[C@H](N(C)C)C4)ccc23)C1 [Compound 4, 6-Chloro-2-((S)-3-dimethylamino-pyrrolidin-1-yl)-quinoline-5-carboxylic acid ((1R,3R)-1-hydroxy-3-methyl-cyclohexylmethyl)-amide] | < 10 nM | < 10 nM
O=C(NCC1CCC(F)(F)CC1)c1c(Cl)ccc2nc(C3=CCCC3)ccc12 [Compound 42, 6-Chloro-2-cyclopent-1-enyl-quinoline-5-carboxylic acid (4,4-difluoro-cyclohexyl methyl)-amide] | 101 to 500 nM | 10 to 100 nM
O=C(NCC1CCC(F)(F)CC1)c1c(Cl)ccc2nc(N3CC[C@H](CCO)C3)ccc12 [Compound 11, 6-Chloro-2-((R)-3-hydroxyethyl-pyrrolidin-1-yl)-quinoline-5-carboxylic acid (4,4-difluoro-cyclohexylmethyl)-amide] | 101 to 500 nM | < 10 nM

Next, values leading:

IC50 (P2X7 [1]) | IC50 (P2X7 [2]) | Compound
10 to 100 nM | 101 to 500 nM | O=C(NCC1(O)CCC(F)(F)CC1)c1c(Cl)ccc2ncccc12 [Compound 76]
101 to 500 nM | 10 to 100 nM | COCCCOc1ccc2c(C(=O)NCC3CCC(F)(F)CC3)c(Cl)ccc2n1 [Compound 69, 6-Chloro-2-(3-methoxy-propoxy)-quinoline-5-carboxylic acid (4,4-difluoro-cyclohexylmethyl)-amide]
101 to 500 nM | 10 to 100 nM | O=C(NCC1CCC(F)(F)CC1)c1c(Cl)ccc2nc(N3CCCC3)ccc12 [Compound 50]
10 to 100 nM | 101 to 500 nM | O=C(NCC1CCC(F)(F)CC1)c1c(Cl)ccc2ncccc12 [Compound 78]
101 to 500 nM | 10 to 100 nM | O=C(NCC1(O)CCCCCC1)c1c(Cl)ccc2ncccc12 [Compound 65]
